Reference: patent US20230149146A1, “AN AUTOMATED CONTROLLED RELEASE DEVICE FOR LIVESTOCK MANAGEMENT AND METHODS OF USE THEREOF” (CORNELL UNIVERSITY, priority 2020, published 2023)
Entries after “also recorded” stand apart in the source; their conditions may differ. Marks after values point to notes of the source that are not given here. Where no end group is shown, it is not given here.

Experiments:
[1] = system: lactating Holstein cows; assay: Luteal regression and plasma P4 after IVG (catheter) or im PGF, first study and follow-up; type: in vivo, cow
Experimental: Catheters were employed to deliver IVG hormones in lactating Holstein cows. […] In a first study, regression of the corpus luteum (“CL regression”) and plasma P4 concentrations after IVG delivery of 25, 50, or 125 mg PGF (Dinoprost) or of saline 7.5 days after induction of ovulation by Ovsynch injections was evaluated. A positive control group received 25 mg of PGF im (i.e., by intramuscular injection), enabling a comparison of outcomes with im PGF to those with IVG PGF.

[2] = system: cows; assay: Larger experiment: physiological outcomes for cows treated with PGF im or IVG; type: in vivo, cow
Description: The PGF experiments' ability to show equal luteal regression with im and IVG administration was limited by small N. Data from a larger, more recent experiment supports non-inferiority for IVG compared to im delivery of PGF to induce luteal regression. […] [table]

[3] = system: lactating Holstein cows; assay: Proof-of-concept: luteal regression by IVG PGF from single-chamber prototype device; type: in vivo, cow; conditions: two 50-mg doses of PGF 12 hours apart via prototype (e-Synch PGF); FIG. 13
Experimental: Lactating Holstein cows were randomized to receive two 50-mg doses of PGF 12 hours apart, or an equal amount of saline solution (negative control), or two 25-mg doses of PGF IVG (IVG positive control), or a single 25-mg dose of PGF im (im positive control). There were four cows in each group (except for saline, two cows). […] In short, administration worked as well as standard injections.

[4] = system: lactating Holstein cows; assay: In-vivo validation of automated IVG device: circulating P4 after PGF2α; parameters: species or system cow
Description: The objective was to develop and validate an electronically-controlled hormone delivery device for reproductive control of cattle. […] The IVG device comprises an outer 3D-printed plastic housing, fluid reservoirs connected to delivery pumps and tubing, a programmable circuit board, and a retention mechanism. For in-vitro testing, 4 pumps were programmed to release different target volumes (0.1, 0.2, 0.5, 1.0, and 2.0 g) in 4 replicates (n=80). A Bland-Altman plot was constructed to assess the magnitude of disagreement between expected and delivered volumes. Observations fell within acceptable limits of agreement (1.96 SD) >95% of the time, indicating overall good agreement (mean difference=−0.005 g). To assess in-vivo performance of the IVG device, lactating Holstein cows with at least 1 corpus luteum ≥15 mm in diameter were randomly allocated to 1 of 3 treatments: IM-PGF (n=6); two 25 mg intramuscular doses of PGF (Dinoprost) 24 h apart, DEV-PGF (n=6); four 25 mg doses of PGF released automatically by the IVG device every 12 h, and DEV-CTL (n=4); insertion of an empty IVG device (placebo control). Blood samples were collected at 0, 12, 24, 36, 48, and 72 h after treatment. Data was analyzed by ANOVA with repeated measures in SAS. All devices (12/12) remained in situ until removed at 48-h. Progesterone (P4) concentrations from 0 to 72 h were affected by treatment, time, and their interaction.
To assess IVG device performance in vivo, lactating nonpregnant primiparous and multiparous Holstein cows from the dairy unit of the Cornell University Ruminant Center (Harford, N.Y.) were enrolled in an experiment. Cows were housed in freestall barns with concrete flooring, self-locking head gates, and fans and sprinklers in the feedline. Cows were milked thrice daily at approximately 8-h intervals and were fed a TMR once a day with ad libitum access to feed and water.
All cows enrolled received a GnRH treatment (200 μg of gonadorelin acetate given intramuscular, Gonabreed, Parnell Pharmaceuticals, Overland Park, Kans., USA) at 40±3 DIM. Seven days later, transrectal ultrasonography (TUS) of the ovaries was performed using a 7.5-MHz linear probe (Ibex Pro; E. I. Medical Imagining, Loveland, Colo.). Cows with […] corpus luteum (CL) ≥15 mm in diameter (n=16) were randomly allocated to 1 of 3 treatments: IM-PGF (n=6), DEV-PGF (n=6), and DEV-CTRL (n=4). Cows in IM-PGF received 2 treatments of 25 mg of PGF2α (12.5 mg/mL of dinoprost tromethamine; Lutalyse HighCon, Zoetis, New York, N.Y.) 24 h apart as a 2 mL injection in the semimembranosus or semitendinosus muscle. Cows in DEV-PGF received 1 IVG device programmed to automatically release 4 doses of 25 mg of PGF2α at ˜12 h intervals (first dose released at time 0). Cows in the DEV-CTRL treatment received an IVG device without PGF2α to serve as a placebo control for the presence of the device in the vagina. All devices were removed at 48 h after insertion.
Blood samples (˜8 to 9 mL) were collected at time 0 and at 12, 24, 36, 48, and 72 h after treatment by puncture of caudal blood vessels using heparinized evacuated tubes (Vacutainer; BD, Franklin Lakes, N.J.). Samples were centrifuged at 2,000×g for 20 min at 4° C. Plasma aliquots were harvested and stored at −20° C. until assayed for progesterone (P4) in duplicate in 3 RIA assays performed as described in Beam, S. W., et al., “Energy balance and ovarian follicle development prior to the first ovulation postpartum in dairy cows receiving three levels of dietary fat.” Biol. Reprod. 56:133-142 (1997), the disclosure of which is incorporated herein by reference in its entirety. The average intra-assay coefficient of variation (CV) was 13.2% whereas the interassay CV was 17.0%. […]

[5] = system: lactating Holstein cows; assay: Luteal regression and plasma P4 after IVG (catheter) or im PGF, first study and follow-up; type: in vivo, cow; conditions: for CLR % (complete luteal regression, P4 < 1 ng/mL) / P4 (ng/mL): PGF25-2X-IVG: two IVG boluses 25 mg PGF 12 h apart
[6] = system: lactating Holstein cows; assay: LH response after IVG delivery of GnRH; type: in vivo, cow; conditions: citric acid as absorption enhancer
Experimental: LH response of lactating Holstein cows after IVG delivery of GnRH was evaluated. Cows received IVG GnRH (Gonadorelin) at a standard dose of 100 μg, or at doses of 500 or 1,000 μg without and with citric acid as an absorption enhancer. A positive control group received 100 μg GnRH im and a negative control group received saline IVG.

[7] = PGF25-IM: single im bolus 25 mg PGF, 60 h after treatment
[8] = PGF25-IM: single im bolus 25 mg PGF, 72 h after treatment
[9] = PGF25-IVG: single IVG bolus 25 mg PGF, 60 h after treatment
[10] = PGF25-IVG: single IVG bolus 25 mg PGF, 72 h after treatment
[11] = IVG: two 25 mg doses of PGF 12 h apart

**Q.** With CCCCC[C@H](O)/C=C/[C@@H]1[C@@H](C/C=C\CCCC(=O)O)[C@@H](O)C[C@H]1O [PGF, prostaglandin F2α] as the compound, how does the “CLR % (complete luteal regression, P4 < 1 ng/mL)” value (“CLR %” for short) [1, 7] read?
**A.** 86^b %

**Q.** And the “P4 (ng/mL)” value [1, 7]?
**A.** 0.67 ± 0.23^bc ng/mL

**Q.** What about the “CLR %” value [1, 8] of the same compound?
**A.** 86^b %

**Q.** What about the “P4 (ng/mL)” value [1, 8] of the same compound?
**A.** 0.57 ± 0.24^c ng/mL

**Q.** And the “CLR %” value [1, 9]?
**A.** 42^b %

**Q.** What about the “P4 (ng/mL)” value [1, 9] of the same compound?
**A.** 1.74 ± 0.50^b ng/mL

**Q.** What about the “CLR %” value [1, 10] of the same compound?
**A.** 42^b %

**Q.** What about the “P4 (ng/mL)” value [1, 10] of the same compound?
**A.** 2.24 ± 0.64^b ng/mL

**Q.** What about the “Estrus after PGF, % (increased physical activity within 72 h of treatment)” value ([2]; IM: 25 mg of PGF im) of the same compound?
**A.** 47.0%

**Q.** What about the “Ovulation, % (in response to GnRH given within 72 h of PGF treatment)” value ([2]; IM: 25 mg of PGF im) of the same compound?
**A.** 88.0%

**Q.** And the “P4 (ng/mL) at 48 h” value ([2]; IM: 25 mg of PGF im)?
**A.** 0.4 ± 0.1 ng/mL

**Q.** And the “P4 (ng/mL) at 72 h” value ([2]; IM: 25 mg of PGF im)?
**A.** 0.4 ± 0.1 ng/mL

**Q.** What about the “CL regression, % (P4 from >1 ng/mL at treatment to <0.5 ng/mL 72 h after)” value ([2]; IM: 25 mg of PGF im (Dinoprost), n = 169) of the same compound?
**A.** 81.1%

**Q.** What about the “Estrus after PGF, % (increased physical activity within 72 h of treatment)” value [2, 11] of the same compound?
**A.** 51.1%

**Q.** What about the “Ovulation, % (in response to GnRH given within 72 h of PGF treatment)” value [2, 11] of the same compound?
**A.** 84.1%

**Q.** And the “P4 (ng/mL) at 48 h” value [2, 11]?
**A.** 0.5 ± 0.1 ng/mL

**Q.** And the “P4 (ng/mL) at 72 h” value [2, 11]?
**A.** 0.6 ± 0.1 ng/mL

**Q.** And the “CL regression, % (P4 from >1 ng/mL at treatment to <0.5 ng/mL 72 h after)” value ([2]; IVG: two 25 mg doses of PGF 12 h apart (Dinoprost), n = 179)?
**A.** 81.0%

**Q.** And the “pattern of P4 decline” value [3]?
**A.** consistent with CL regression and similar to that of cows in the positive control groups

**Q.** And the “P4, one cow” value ([4]; DEV-PGF (four 25 mg doses by IVG device every 12 h), 36 h after treatment)?
**A.** 1.20 ng/mL

**Q.** And the “P4 concentrations compared with placebo device control” value ([4]; DEV-PGF and IM-PGF vs DEV-CTRL, from 24 to 72 h)?
**A.** lesser P4 than cows in DEV-CTL; also recorded: lesser concentrations of P4 than cows in the DEV-CTRL treatment

**Q.** What about the “P4, all other cows” value ([4]; DEV-PGF and IM-PGF, 36 h after treatment) of the same compound?
**A.** < 1 ng/mL

**Q.** What about the “P4, all other cows, end of the sampling period” value ([4]; DEV-PGF and IM-PGF, 72 h) of the same compound?
**A.** < 0.5 ng/mL

**Q.** And the “luteal regression by PGF delivered automatically by the device” value ([4]; DEV-PGF, lactating dairy cows)?
**A.** successful induction of luteal regression; also recorded: complete luteal regression

**Q.** What about the “P4, one cow” value ([4]; IM-PGF (two 25 mg im doses 24 h apart), 36 h after treatment) of the same compound?
**A.** 1.21 ng/mL

**Q.** What about the “P4, one cow, end of the sampling period” value ([4]; IM-PGF, 72 h) of the same compound?
**A.** 0.50 ng/mL

**Q.** And the “P4 concentrations, DEV-PGF compared with IM-PGF” value ([4]; entire sampling period, 0 to 72 h)?
**A.** did not differ

**Q.** And the “CLR %” value ([5]; 60 h after treatment)?
**A.** 100^b %

**Q.** What about the “P4 (ng/mL)” value ([5]; 60 h after treatment) of the same compound?
**A.** 0.19 ± 0.04^c ng/mL

**Q.** And the “CLR %” value ([5]; 72 h after treatment)?
**A.** 100^b %

**Q.** What about the “P4 (ng/mL)” value ([5]; 72 h after treatment) of the same compound?
**A.** 0.21 ± 0.07^c ng/mL

**Q.** What about the “CL regression, single bolus of IVG PGF compared with im PGF” value ([5]; single IVG bolus (25, 50 or 125 mg) vs 25 mg im) of the same compound?
**A.** less effectual than im PGF

**Q.** What about the “cows that experienced complete CL regression” value ([5]; two 25 mg boluses of IVG PGF 12 hours apart, follow-up experiment) of the same compound?
**A.** 100%

**Q.** And the “blood/plasma progesterone after treatment compared with im PGF” value ([5]; two IVG boluses 25 mg PGF 12 h apart (PGF25-2X-IVG) vs PGF25-IM, FIG. 10)?
**A.** indistinguishable from a single dose intramuscular injection of PGF

**Q.** And the “luteolytic response compared with single im injection” value ([5]; two IVG boluses of PGF 12 hours apart, summary of the PGF experiments)?
**A.** comparable luteolytic response to a single intramuscular injection of PGF

**Q.** For “gonadotropin releasing hormone (QHWSYGLRPG; ends and bridges not checked; UniProt P01148 24-33, looked up) [GnRH, releasing hormone that triggers LH release]”, which “effect of adding 10% citric acid to the GnRH mixture” value [6] is on record?
**A.** necessary for efficacy of IVG GnRH
